US12194039B2, “Methods of treating heart failure by administering omecamtiv mecarbil” (Cytokinetics, Inc., priority 2020, dated 2025)
Several values for one entry are separate records, joined by “and”; a condition that tells them apart may be missing. Equal entries are not always repeated. Entries after “also recorded” stand apart in the source; their conditions may differ. Where two headings read alike, the source gives them in different places.

Assays:
CYP3A4 = test: In vitro induction by OM; format: in vitro ADME; settings: result in words
Description: OM may be administered with drugs that are substrates of CYP3A4, CYP2C8, P-gp or BCRP.

[1] = test system: patients with HFrEF by baseline NT-proBNP (no AF/F and all randomized); settings: for 1° Outcome (time to HF hospitalization or CV death), HR / All-cause death, HR / Hospitalization for HF, HR / NT-proBNP change from baseline to 24 weeks, Ratio: OM vs placebo
Protocol: Here we report the effect of omecamtiv mecarbil according to baseline NT-proBNP level in patients without AF/F and in the overall population. In addition, we describe the effect of omecamtiv mecarbil using NT-proBNP as a continuous as well as a categorical measure and describe the effect of omecamtiv mecarbil on NT-proBNP level.
NT-proBNP was measured at baseline and at 2, 6, 24, 48 and 96 weeks after randomization. Plasma NT-proBNP was measured in a central laboratory (Q Squared Solutions) using the Roche Elecsys NT-proBNP two-site electrochemiluminescence immunoassay (analytical range 50-35000 pg/m L).
Baseline characteristics were summarized as frequencies with percentages, means with standard deviation (SD), or medians with interquartile ranges. Differences in baseline characteristics were tested using the Cochrane-Armitage trend test for categorical variables and the analysis of variance test for continuous variables. The difference between treatment groups in NT-proBNP at the time points after randomization in surviving patients was analyzed using an analysis of covariance model, with treatment-group assignment as a fixed-effect factor and baseline NT-proBNP as a covariate. […] Time-to-event data were evaluated with Kaplan-Meier estimates and Cox proportional-hazards models with baseline hazards stratified by randomization setting and region and with treatment group and baseline eGFR as covariates. The safety analyses were performed in patients who underwent randomization and received at least one dose of omecamtiv mecarbil or placebo. […] A P-value of 0.05 was considered statistically significant.

[2] = All patients, baseline NT-proBNP >median
[3] = All patients, baseline NT-proBNP >median, OM n = 2034
[4] = All patients, baseline NT-proBNP ≤median
[5] = All patients, baseline NT-proBNP ≤median, OM n = 2073
[6] = No AF/F, baseline NT-proBNP >median
[7] = No AF/F, baseline NT-proBNP >median, OM n = 1489
[8] = No AF/F, baseline NT-proBNP ≤median
[9] = No AF/F, baseline NT-proBNP ≤median, OM n = 1476
[10] = patients without AF/F, baseline NT-proBNP>median

Structure (SMILES): COC(=O)N1CCN(Cc2cccc(NC(=O)Nc3ccc(C)nc3)c2F)CC1 [omecamtiv mecarbil]
- Induction of CYP3A4 (CYP3A4): inducer
- NT-proBNP at 24 wks [1, 2]: 2809 pg/mL
- 1° Outcome (time to HF hospitalization or CV death), % [1, 3]: (48) %
- 1° Outcome (time to HF hospitalization or CV death), Rate [1, 3]: 36.52 per 100 person-years
- All-cause Death (%) [1, 3]: (36) %
- All-cause Death Rate [1, 3]: 21.87 per 100 person-years
- Hospitalization for HF, % [1, 3]: (37) %
- Hospitalization for HF, Rate [1, 3]: 27.93 per 100 person-years
- 1° Outcome (time to HF hospitalization or CV death), HR [1, 2]: 0.88
- All-cause death, HR [1, 2]: 0.97
- Hospitalization for HF, HR [1, 2]: 0.88
- NT-proBNP change from baseline to 24 weeks, Ratio [1, 2]: 0.84
- NT-proBNP at 24 wks [1, 4]: 772 pg/mL
- 1° Outcome (time to HF hospitalization or CV death), % [1, 5]: (26) %
- 1° Outcome (time to HF hospitalization or CV death), Rate [1, 5]: 15.00 per 100 person-years
- All-cause Death (%) [1, 5]: (16) %
- All-cause Death Rate [1, 5]: 8.11 per 100 person-years
- Hospitalization for HF, % [1, 5]: (20) %
- Hospitalization for HF, Rate [1, 5]: 11.84 per 100 person-years
- 1° Outcome (time to HF hospitalization or CV death), HR [1, 4]: 1.02
- All-cause death, HR [1, 4]: 1.10
- Hospitalization for HF, HR [1, 4]: 1.04
- NT-proBNP change from baseline to 24 weeks, Ratio [1, 4]: 0.95
- NT-proBNP threshold at which the favorable effect emerged ([1]; NT-proBNP as a continuous measure, patients without AF/F): around 2,000 pg/mL
- NT-proBNP at 24 wks [1, 6]: 2302 pg/mL
- 1° Outcome (time to HF hospitalization or CV death), % [1, 7]: (44) %
- 1° Outcome (time to HF hospitalization or CV death), Rate [1, 7]: 31.30 per 100 person-years
- All-cause Death (%) [1, 7]: (32) %
- All-cause Death Rate [1, 7]: 18.67 per 100 person-years
- Hospitalization for HF, % [1, 7]: (32) %
- Hospitalization for HF, Rate [1, 7]: 23.26 per 100 person-years
- 1° Outcome (time to HF hospitalization or CV death), HR [1, 6]: 0.81
- All-cause death, HR [1, 6]: 0.86
- Hospitalization for HF, HR [1, 6]: 0.79
- NT-proBNP change from baseline to 24 weeks, Ratio [1, 6]: 0.83
- NT-proBNP at 24 wks [1, 8]: 614 pg/mL
- 1° Outcome (time to HF hospitalization or CV death), % [1, 9]: (22) %
- 1° Outcome (time to HF hospitalization or CV death), Rate [1, 9]: 12.42 per 100 person-years
- All-cause Death (%) [1, 9]: (13) %
- All-cause Death Rate [1, 9]: 6.74 per 100 person-years
- Hospitalization for HF, % [1, 9]: (17) %
- Hospitalization for HF, Rate [1, 9]: 9.62 per 100 person-years
- 1° Outcome (time to HF hospitalization or CV death), HR [1, 8]: 0.94
- All-cause death, HR [1, 8]: 0.96
- Hospitalization for HF, HR [1, 8]: 0.97
- NT-proBNP change from baseline to 24 weeks, Ratio [1, 8]: 0.95
- Effect on NT-proBNP by baseline NT-proBNP ([1]; baseline to 24 weeks, result in words): reduced NT-proBNP only in patients with a baseline value NT-proBNP greater than the median
- Adverse events compared to placebo ([1]; in vivo): no strong or consistent evidence that any adverse event was more common
- Effect on systolic blood pressure ([1]; in vivo): did not have a significant effect
- Effect on troponin I ([1]; in vivo): increased troponin I, significantly
- HR (heart rate) at 24 wks ([1]; in vivo): 70 (11) bpm and 69 bpm and 70 (12) bpm and 70 bpm
- Major cardiac ischemic events, RR ([1]; in vivo): 1.16 (0.86, 1.56) and 1.10 (0.85, 1.43) and 1.08 (0.80, 1.47) and 0.99 (0.74, 1.33)
- Major cardiac ischemic events, number of patients ([1]; in vivo): 86 (5.8) and 114 (5.5) and 83 (5.6) and 85 (4.2)
- Major cardiac ischemic events, value in parentheses ([1]; in vivo): 86 (5.8) and 114 (5.5) and 83 (5.6) and 85 (4.2)
- Reduction of heart rate ([1]; in vivo): 1-2 beats per minute
- SBP at 24 wks ([1]; in vivo): 120 mmHg and 116 mmHg
- Stroke, RR ([1]; in vivo): 0.83 (0.49, 1.39) and 0.68 (0.44, 1.03) and 0.73 (0.45, 1.17) and 0.69 (0.46, 1.03)
- Stroke, number of patients ([1]; in vivo): 25 (1.7) and 36 (1.7) and 29 (2.0) and 40 (2.0)
- Stroke, value in parentheses ([1]; in vivo): 25 (1.7) and 36 (1.7) and 29 (2.0) and 40 (2.0)
- Torsade/QT prolongation, RR ([1]; in vivo): 0.84 (0.58, 1.23) and 0.88 (0.65, 1.19) and 1.01 (0.73, 1.39) and 0.94 (0.72, 1.23)
- Troponin I change from baseline to 24 weeks, Ratio ([1]; in vivo): 1.28 and 1.25 and 1.23
- Ventricular tachyarrhythmia leading to treatment, RR ([1]; in vivo): 0.67 (0.42, 1.07) and 0.86 (0.59, 1.25) and 1.15 (0.77, 1.72) and 1.02 (0.73, 1.42)
- Ventricular tachyarrhythmia, RR ([1]; in vivo): 0.82 (0.62, 1.09) and 0.89 (0.71, 1.12) and 1.05 (0.82, 1.35) and 1.03 (0.83, 1.27)
- Ventricular tachyarrhythmia, number of patients ([1]; in vivo): 84 (6.7) and 130 (7.3) and 115 (8.6) and 160 (8.7)
- Ventricular tachyarrhythmia, value in parentheses ([1]; in vivo): 84 (6.7) and 130 (7.3) and 115 (8.6) and 160 (8.7)
- Primary endpoint, hazard ratio ([1]; overall population, NT-proBNP less than or equal to the median): 1.01
- Primary endpoint, hazard ratio ([1]; overall population, NT-proBNP>median): 0.88
- Primary outcome event rate compared with the placebo group ([1]; patients with AF/F at baseline, result in words): higher event rate
- Proportional reduction in NT-proBNP compared with placebo ([1]; patients with NT-proBNP greater than the median at baseline): approximately 17%
- Primary endpoint, hazard ratio ([1]; patients without AF/F, NT-proBNP greater than the median): 0.81
- Primary endpoint, hazard ratio ([1]; patients without AF/F, NT-proBNP less than or equal to the median): 0.94
- Benefit on primary endpoint ([1]; patients without AF/F, NT-proBNP≤median, result in words): no benefit
- Relative risk reduction in cardiovascular mortality [1, 10]: 13%
- Relative risk reduction in heart failure hospitalization [1, 10]: 21%
- Relative risk reduction in the primary endpoint [1, 10]: 18%
- Treatment efficacy / benefit by baseline NT-proBNP level ([1]; result in words): higher treatment efficacy; also recorded: larger in patients with higher baseline NT-proBNP levels
